# From ChEMBL document CHEMBL3044569, “Mini-plot field experiments using seed dressings to control slug damage to oilseed rape” (Crop Prot, 2006)
# Calls of active or inactive are those of the source. No cut-off for these calls is given here.
# What was measured:
# Deroceras reticulatum [1] = test: Pesticidal activity against Deroceras reticulatum infected oilseed rape assessed as protection against slug damage studied in spring applied during seed dressing at 60 g a.i/kg seed after 2 to 4 weeks relative to untreated control; type: functional, organism-based
# Deroceras reticulatum [2] = test: Pesticidal activity against Deroceras reticulatum infected oilseed rape assessed as protection against slug damage studied in spring applied as pellet at 8 kg product/ha after 1 to 4 weeks relative to untreated control; type: functional, organism-based
# Deroceras reticulatum [3] = test: Pesticidal activity against Deroceras reticulatum infected oilseed rape assessed as protection against slug damage studied in autumn applied as pellet at 8 kg product/ha after 1 to 4 weeks relative to untreated control; type: functional, organism-based
# Deroceras reticulatum [4] = test: Pesticidal activity against Deroceras reticulatum infected oilseed rape assessed as protection against slug damage studied in autumn applied during seed dressing at 58 g a.i/kg seed after 1 to 4 weeks relative to untreated control; type: functional, organism-based
# Brassica napus [5] = test: Phytotoxicity in Brassica napus (oilseed rape) at 60 g a.i/kg applied during seed dressing after 4 weeks studied in spring (reference value: 91 +/- 2.8 %); type: organism-based; details: in vivo, other, 672 h
# Brassica napus [6] = test: Phytotoxicity in Brassica napus (oilseed rape) at 58 g a.i/kg applied during seed dressing after 4 weeks studied in autumn (reference value: 89 +/- 2.9 %); type: organism-based; details: in vivo, other, 672 h
# Deroceras reticulatum [7] = test: Pesticidal activity against Deroceras reticulatum infected oilseed rape assessed as protection against slug damage studied in spring applied during seed dressing at 20 g a.i/kg seed after 2 to 4 weeks relative to untreated control; type: functional, organism-based
# Deroceras reticulatum [8] = test: Pesticidal activity against Deroceras reticulatum infected oilseed rape assessed as protection against slug damage studied in autumn applied during seed dressing at 18 g a.i/kg seed after 1 to 4 weeks relative to untreated control; type: functional, organism-based
# Brassica napus [9] = test: Phytotoxicity in Brassica napus (oilseed rape) at 20 g a.i/kg applied during seed dressing after 4 weeks studied in spring (reference value: 91 +/- 2.8 %); type: organism-based; details: in vivo, other, 672 h
# Brassica napus [10] = test: Phytotoxicity in Brassica napus (oilseed rape) at 18 g a.i/kg applied during seed dressing after 4 weeks studied in autumn (reference value: 89 +/- 2.9 %); type: organism-based; details: in vivo, other, 672 h
Structure (SMILES),Activity (Deroceras reticulatum [1]),Activity (Deroceras reticulatum [2]),Activity (Deroceras reticulatum [3]),Activity (Deroceras reticulatum [4]),Activity (Brassica napus [5]) [%],Activity (Brassica napus [6]) [%],Activity (Deroceras reticulatum [7]),Activity (Deroceras reticulatum [8]),Activity (Brassica napus [9]) [%],Activity (Brassica napus [10]) [%]
CC1OC(C)OC(C)OC(C)O1 (stereo not given) [METALDEHYDE],Active,Active,Active,Active,90.3,77,,,,
CNC(=O)Oc1cc(C)c(SC)c(C)c1 [METHIOCARB],,,,,,,Active,Active,87.5,86.5
